Source: the supplement of paper PMC10307832

Experiments:
Test in all cases: relative viability (nuclei count vs DMSO), 5 days (fraction); higher = more cells survive
[1] = system: NCI-H2023
Summary of the method: (§1)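 Medians of duplicate plates are given as relative viability. That measure is the nuclei count in treated wells divided by the count in vehicle wells. Counts were taken on 4× images of lung cancer cell lines in 1536-well plates, 5 days after pin-tool dosing the day after seeding with one drug alone or a fixed anchor-drug dose plus five library-drug doses (not always all listed) in √10 steps.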

[2] = system: NCI-H2347
Summary of the method: as §1

[3] = system: NCI-H1563
Summary of the method: as §1

[4] = system: NCI-H1650
Summary of the method: as §1

[5] = system: NCI-H2009
Summary of the method: as §1

[6] = system: HOP-62
Summary of the method: as §1

[7] = system: NCI-H2085
Summary of the method: as §1

[8] = system: SW 1573
Summary of the method: as §1

[9] = system: SK-LU-1
Summary of the method: as §1

[10] = system: NCI-H322M
Summary of the method: as §1

[11] = system: NCI-H647
Summary of the method: as §1

## C=C1C(=O)O[C@@H](CCCCCCCC)[C@@H]1C(=O)O [C-75] + CS(=O)(=O)N1CCN(Cc2cc3nc(-c4cccc5[nH]ncc45)nc(N4CCOCC4)c3s2)CC1 [Pictilisib] (partner 1 µM)
[1]; first compound 0.08 µM
  relative viability: 0.239
[1]; first compound 0.253 µM
  relative viability: 0.29
[1]; first compound 0.8 µM
  relative viability: 0.203
[1]; first compound 2.53 µM
  relative viability: 0.311
[1]; first compound 8 µM
  relative viability: 0.262
[2]; first compound 0.08 µM
  relative viability: 0.554
[2]; first compound 0.253 µM
  relative viability: 0.877
[2]; first compound 0.8 µM
  relative viability: 0.31
[2]; first compound 2.53 µM
  relative viability: 0.592
[2]; first compound 8 µM
  relative viability: 0.649
[3]; first compound 0.08 µM
  relative viability: 0.606
[3]; first compound 0.253 µM
  relative viability: 0.681
[3]; first compound 0.8 µM
  relative viability: 0.737
[3]; first compound 2.53 µM
  relative viability: 0.673
[3]; first compound 8 µM
  relative viability: 0.63
[4]; first compound 0.08 µM
  relative viability: 0.632
[4]; first compound 0.253 µM
  relative viability: 0.691
[4]; first compound 0.8 µM
  relative viability: 0.521
[4]; first compound 2.53 µM
  relative viability: 0.474
[4]; first compound 8 µM
  relative viability: 0.619
[5]; first compound 0.08 µM
  relative viability: 0.789
[5]; first compound 0.253 µM
  relative viability: 0.96
[5]; first compound 0.8 µM
  relative viability: 0.789
[5]; first compound 2.53 µM
  relative viability: 0.428
[5]; first compound 8 µM
  relative viability: 0.6
[6]; first compound 0.08 µM
  relative viability: 0.732
[6]; first compound 0.253 µM
  relative viability: 0.927
[6]; first compound 0.8 µM
  relative viability: 0.788
[6]; first compound 2.53 µM
  relative viability: 0.73
[6]; first compound 8 µM
  relative viability: 0.545
[7]; first compound 0.08 µM
  relative viability: 0.504
[7]; first compound 0.253 µM
  relative viability: 0.543
[7]; first compound 0.8 µM
  relative viability: 0.433
[7]; first compound 2.53 µM
  relative viability: 0.339
[7]; first compound 8 µM
  relative viability: 0.413
[8]; first compound 0.08 µM
  relative viability: 0.555
[8]; first compound 0.253 µM
  relative viability: 0.511
[8]; first compound 0.8 µM
  relative viability: 0.482
[8]; first compound 2.53 µM
  relative viability: 0.346
[8]; first compound 8 µM
  relative viability: 0.365
[9]; first compound 0.08 µM
  relative viability: 0.568
[9]; first compound 0.253 µM
  relative viability: 0.638
[9]; first compound 0.8 µM
  relative viability: 0.588
[9]; first compound 2.53 µM
  relative viability: 0.574
[9]; first compound 8 µM
  relative viability: 0.362
[10]; first compound 0.08 µM
  relative viability: 0.563
[10]; first compound 0.253 µM
  relative viability: 0.674
[10]; first compound 0.8 µM
  relative viability: 0.514
[10]; first compound 2.53 µM
  relative viability: 0.528
[10]; first compound 8 µM
  relative viability: 0.489
[11]; first compound 0.08 µM
  relative viability: 0.449
[11]; first compound 0.253 µM
  relative viability: 0.427
[11]; first compound 2.53 µM
  relative viability: 0.396
[11]; first compound 8 µM
  relative viability: 0.498
